The source of these data is patent US10266549B2, “ULK1 inhibitors and methods using same” (SALK INSTITUTE FOR BIOLOGICAL STUDIES, priority 2014, dated 2019).

pIC50: −log10 of the molar value. Bounds are passed on as bounds.

The target of the experiment is ULK1 (Homo sapiens (Human), UniProt O75385). Kind of experiment: ULK1 inhibition assay (Table 1). The following applies: * = tested as a mixture of regioisomers. It is filed as biochemical.
Chain of ULK1 (O75385 whole entry, species assumed): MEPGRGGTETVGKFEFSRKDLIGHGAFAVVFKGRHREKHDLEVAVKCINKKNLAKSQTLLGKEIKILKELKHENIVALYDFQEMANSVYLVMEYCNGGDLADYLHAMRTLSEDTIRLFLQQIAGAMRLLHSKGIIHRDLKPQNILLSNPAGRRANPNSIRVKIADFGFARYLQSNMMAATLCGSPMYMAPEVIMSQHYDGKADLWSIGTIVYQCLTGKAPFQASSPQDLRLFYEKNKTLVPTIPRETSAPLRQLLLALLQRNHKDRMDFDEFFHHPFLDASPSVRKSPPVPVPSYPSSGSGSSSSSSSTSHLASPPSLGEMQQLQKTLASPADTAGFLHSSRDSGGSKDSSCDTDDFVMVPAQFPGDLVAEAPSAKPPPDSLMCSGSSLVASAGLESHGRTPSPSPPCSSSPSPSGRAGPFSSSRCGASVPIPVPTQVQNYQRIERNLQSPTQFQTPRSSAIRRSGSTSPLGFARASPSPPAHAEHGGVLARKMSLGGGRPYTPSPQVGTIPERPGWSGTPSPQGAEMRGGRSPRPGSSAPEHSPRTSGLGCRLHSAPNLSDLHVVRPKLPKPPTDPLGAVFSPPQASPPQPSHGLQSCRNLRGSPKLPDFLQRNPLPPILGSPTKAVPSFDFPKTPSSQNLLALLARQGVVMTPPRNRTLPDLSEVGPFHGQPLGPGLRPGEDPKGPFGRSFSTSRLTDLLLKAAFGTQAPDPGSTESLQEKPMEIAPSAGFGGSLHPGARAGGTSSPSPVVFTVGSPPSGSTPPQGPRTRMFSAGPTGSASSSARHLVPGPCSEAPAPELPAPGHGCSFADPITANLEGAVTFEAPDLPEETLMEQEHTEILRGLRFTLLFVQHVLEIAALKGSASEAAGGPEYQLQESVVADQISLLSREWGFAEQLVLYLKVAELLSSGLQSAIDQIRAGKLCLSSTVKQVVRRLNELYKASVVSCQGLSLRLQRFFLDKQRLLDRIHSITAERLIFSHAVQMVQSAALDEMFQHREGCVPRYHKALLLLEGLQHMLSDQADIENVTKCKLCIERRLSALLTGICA

Broadly, the pIC50 is −log10 of the IC50, conventionally taken in molar units. Consider `COc1ccc(Nc2nc(Nc3ccc(N4CCOCC4)cc3OC)ncc2Br)cn1` [compound 28, 5-Bromo-N^2-(2-methoxy-4-morpholinophenyl)-N^4-(6-methoxypyridin-3-yl)pyrimidine-2,4-diamine], for which the pIC50 is 5.70 to 6.70.
The result for `COc1ccc(Nc2nc(Nc3ccc4[nH]ccc4c3)ncc2Cl)cn1` [compound 29, 5-Chloro-N^2-(1H-indol-5-yl)-N^4-(6-methoxypyridin-3-yl) pyrimidine-2,4-diamine] reads 5.70 to 6.70; that for `COc1ccc(Nc2nc(Nc3ccc4[nH]ccc4c3)ncc2Br)cn1` [compound 30, 5-Bromo-N^2-(1H-indol-5-yl)-N^4-(6-methoxypyridin-3-yl) pyrimidine-2,4-diamine], more than 6.70; that for `COc1cc(Nc2ncc(C(F)(F)F)c(NCc3cccc(S(C)(=O)=O)c3)n2)cc(OC)c1OC` [compound 31, N^4-(3-(Methylsulfonyl)benzyl)-5-(trifluoromethyl)-N^2-(3,4,5-trimethoxyphenyl)pyrimidine-2,4-diamine], more than 6.70.
In the case of `CS(=O)(=O)c1cccc(CNc2nc(Nc3ccc4c(c3)CCC(=O)N4)ncc2C(F)(F)F)c1` [compound 32, 6-(4-(3-(Methylsulfonyl)benzylamino)-5-(trifluoromethyl)pyrimidin-2-ylamino)-3,4-dihydroquinolin-2(1H)-one], the negative logarithm of the IC50 (pIC50) was 5.70 to 6.70.
The result for `CS(=O)(=O)c1cccc(CNc2nc(Nc3ccc4c(c3)CC(=O)N4)ncc2C(F)(F)F)c1` [compound 33, 5-((4-((3-(Methylsulfonyl)benzyl)amino)-5-(trifluoromethyl)pyrimidin-2-yl)amino)indolin-2-one] reads 5.70 to 6.70.
In the case of `COc1ccc(C)c(Nc2ncc(Cl)c(Nc3ccc(OC)nc3)n2)c1` [compound 34, 5-Chloro-N^2-(5-methoxy-2-methylphenyl)-N^4-(6-methoxypyridin-3-yl)pyrimidine-2,4-diamine], the pIC50 was less than 5.70.
The result for `CNC(=O)c1ccccc1Nc1nc(Nc2cc(OC)c(OC)c(OC)c2)ncc1C(F)(F)F` [compound 36, N-Methyl-2-(5-(trifluoromethyl)-2-(3,4,5-trimethoxyphenylamino)pyrimidin-4-ylamino)benzamide] reads less than 5.70.
The result for `COc1ccc(Nc2nc(Nc3cc(OC)c(OC)c(OC)c3)ncc2C(F)(F)F)cn1` [compound 37, N^4-(6-Methoxypyridin-3-yl)-5-(trifluoromethyl)-N^2-(3,4,5-trimethoxyphenyl)pyrimidine-2,4-diamine] reads more than 6.70.
For `COc1cc(Nc2ncc(C(F)(F)F)c(Nc3ccccn3)n2)cc(OC)c1OC` [compound 38, N^4-(Pyridin-2-yl)-5-(trifluoromethyl)-N^2-(3,4,5-trimethoxyphenyl)pyrimidine-2,4-diamine], the pIC50 was 5.70 to 6.70.
With `CNC(=O)c1ccccc1Nc1nc(Nc2ccc(N3CCOCC3)cc2OC)ncc1C(F)(F)F` [compound 39, 2-(2-(2-Methoxy-4-morpholinophenylamino)-5-(trifluoromethyl)pyrimidin-4-ylamino)-N-methylbenzamide], the negative-log IC50 (pIC50) was more than 6.70.
As for `COc1ccc(Nc2nc(Nc3ccc(N4CCOCC4)cc3OC)ncc2C(F)(F)F)cn1` [compound 40, N^2-(2-methoxy-4-morpholinophenyl)-N^4-(6-methoxypyridin-3-yl)-5-(trifluoromethyl)pyrimidine-2,4-diamine], the pIC50 is less than 5.70.
On to `COc1ccc(C)c(Nc2ncc(Cl)c(NCc3cccc(S(C)(=O)=O)c3)n2)c1` [compound 41, 5-Chloro-N^2-(5-methoxy-2-methylphenyl)-N^4-(3-(methylsulfonyl)benzyl)pyrimidine-2,4-diamine], for which the negative-log IC50 (pIC50) was less than 5.70.
The result for `CNC(=O)c1ccccc1Nc1nc(Nc2cc(OC)ccc2C)ncc1C(F)(F)F` [compound 42, 2-(2-(5-Methoxy-2-methylphenylamino)-5-(trifluoromethyl)pyrimidin-4-ylamino)-N-methylbenzamide] reads more than 6.70; that for `O=C1CCc2cc(Nc3ncc(C(F)(F)F)c(NCc4ccccc4)n3)ccc2N1` [compound 43, 6-(4-(Benzylamino)-5-(trifluoromethyl)pyrimidin-2-ylamino)-3,4-dihydroquinolin-2(1H)-one], more than 6.70.
The result for `CNC(=O)c1ccccc1Nc1nc(Nc2cccc(OC)c2)ncc1Cl` [compound 44, 2-(5-Chloro-2-(3-methoxyphenylamino)pyrimidin-4-ylamino)-N-methylbenzamide] reads more than 6.70; that for `COc1cc(N2CCOCC2)ccc1Nc1ncc(C(F)(F)F)c(Nc2ccccn2)n1` [compound 46, N^2-(2-Methoxy-4-morpholinophenyl)-N^4-(pyridin-2-yl)-5-(trifluoromethyl) pyrimidine-2,4-diamine], 5.70 to 6.70.
On to `O=C1CCc2cc(Nc3ncc(C(F)(F)F)c(Nc4ccccc4)n3)ccc2N1` [compound 48, 6-(4-(Phenylamino)-5-(trifluoromethyl)pyrimidin-2-ylamino)-3,4-dihydroquinolin-2(1H)-one], for which the pIC50 is more than 6.70.
In the case of `CNC(=O)c1ccccc1Nc1nc(Nc2ccc3c(c2)OCO3)ncc1Cl` [compound 49, 2-(2-(Benzo[d][1,3]dioxol-5-ylamino)-5-chloropyrimidin-4-ylamino)-N-methylbenzamide], the negative-log IC50 (pIC50) was more than 6.70.
On to `CNC(=O)c1ccccc1Nc1nc(Nc2ccc3c(c2)OCCO3)ncc1Cl` [compound 51, 2-(5-Chloro-2-(2,3-dihydrobenzo[b][1,4]dioxin-6-ylamino)pyrimidin-4-ylamino)-N-methylbenzamide], for which the negative-log IC50 (pIC50) is more than 6.70.
The result for `COc1cc(N2CCOCC2)ccc1Nc1ncc(C(F)(F)F)c(NCc2cccc(S(C)(=O)=O)c2)n1` [compound 52, N^2-(2-Methoxy-4-morpholinophenyl)-N^4-(3-(methylsulfonyl)benzyl)-5-(trifluoromethyl)pyrimidine-2,4-diamine] reads less than 5.70; that for `CNC(=O)c1ccccc1Nc1nc(Nc2ccccc2C)ncc1Cl` [compound 53, 2-(5-Chloro-2-(o-tolylamino)pyrimidin-4-ylamino)-N-methylbenzamide], less than 5.70; that for `COc1ccc(C)c(Nc2ncc(Cl)c(Nc3cccc(CC#N)c3)n2)c1` [compound 54, 2-(3-(5-Chloro-2-(5-methoxy-2-methylphenylamino)pyrimidin-4-ylamino)phenyl)acetonitrile], less than 5.70.
`COc1ccc(C)c(Nc2ncc(Cl)c(Nc3nccc(C)n3)n2)c1` [compound 55, 5-Chloro-N^2-(5-methoxy-2-methylphenyl)-N^4-(4-methylpyrimidin-2-yl)pyrimidine-2,4-diamine]: the pIC50 is less than 5.70.
The result for `CS(=O)(=O)c1cccc(CNc2nc(Nc3ccc4c(c3)CCC(=O)N4)ncc2F)c1` [compound 56, 6-((5-Fluoro-4-((3-(methylsulfonyl)benzyl)amino)pyrimidin-2-yl)amino)-3,4-dihydroquinolin-2(1H)-one] reads less than 5.70.
Take `CNC(=O)c1ccccc1Nc1nc(Nc2cc3c(cc2C)OCO3)ncc1Cl` [compound 57, 2-(5-Chloro-2-(6-methylbenzo[d][1,3]dioxol-5-ylamino)pyrimidin-4-ylamino)-N-methylbenzamide]: the pIC50 was more than 6.70.
The result for `O=C1CCc2cc(Nc3ncc(C(F)(F)F)c(Nc4nccs4)n3)ccc2N1` [compound 58, 6-(4-(Thiazol-2-ylamino)-5-(trifluoromethyl)pyrimidin-2-ylamino)-3,4-dihydroquinolin-2(1H)-one] reads less than 5.70; that for `CNC(=O)c1ccccc1Nc1ccnc(Nc2cc(OC)c(OC)c(OC)c2)n1` [compound 60, N-Methyl-2-(2-(3,4,5-trimethoxyphenylamino)pyrimidin-4-ylamino)benzamide], more than 6.70.
`N#CCc1cccc(Nc2nc(Nc3ccc4c(c3)CCC(=O)N4)ncc2C(F)(F)F)c1` [compound 61, 2-(3-(2-(2-Oxo-1,2,3,4-tetrahydroquinolin-6-ylamino)-5-(trifluoromethyl)pyrimidin-4-ylamino)phenyl)acetonitrile]: the pIC50 is more than 6.70.
As to `O=C1CCc2cc(Nc3ncc(C(F)(F)F)c(SCc4ccccc4)n3)ccc2N1` [compound 62, 6-(4-(Benzylthio)-5-(trifluoromethyl)pyrimidin-2-ylamino)-3,4-dihydroquinolin-2(1H)-one], the pIC50 was more than 6.70.
The result for `O=C1CCc2cc(Nc3ncc(C(F)(F)F)c(C#Cc4ccccc4)n3)ccc2N1` [compound 64, 6-(4-(Phenylethynyl)-5-(trifluoromethyl)pyrimidin-2-ylamino)-3,4-dihydroquinolin-2(1H)-one] reads less than 5.70; that for `O=C1CCc2cc(Nc3ncc(C(F)(F)F)c(CCc4ccccc4)n3)ccc2N1` [compound 66, 6-((4-Phenethyl-5-(trifluoromethyl)pyrimidin-2-yl)amino)-3,4-dihydroquinolin-2(1H)-one], 5.70 to 6.70; that for `Cc1cnc(Nc2ccc3c(c2)CCC(=O)N3)nc1NCc1cccc(S(C)(=O)=O)c1` [compound 67, 6-((5-Methyl-4-((3-(methylsulfonyl)benzyl)amino)pyrimidin-2-yl)amino)-3,4-dihydroquinolin-2(1H)-one], less than 5.70.
On to `O=C1CCc2cc(Nc3ncc(C(F)(F)F)c(/C=C/c4ccccc4)n3)ccc2N1` [compound 69, (E)-6-(4-Styryl-5-(trifluoromethyl)pyrimidin-2-ylamino)-3,4-dihydroquinolin-2(1H)-one], for which the pIC50 is more than 6.70.
The result for `CNC(=O)c1ccccc1Nc1nc(Nc2cc(OC)c(OC)c(OC)c2)ncc1/C=C/c1ccccc1` [compound 71, (E)-N-Methyl-2-((5-styryl-2-((3,4,5-trimethoxyphenyl)amino)pyrimidin-4-yl)amino)benzamide] reads more than 6.70.
As for `O=C1CCc2cc(Nc3ncc(C(F)(F)F)c(-c4ccccc4)n3)ccc2N1` [compound 72, 6-(4-Phenyl-5-(trifluoromethyl)pyrimidin-2-ylamino)-3,4-dihydroquinolin-2(1H)-one], the negative logarithm of the IC50 (pIC50) is less than 5.70.
The result for `CNC(=O)c1ccccc1Nc1nc(Nc2cc(OC)c(OC)c(OC)c2)ncc1-c1ccccc1` [compound 73, N-Methyl-2-(5-phenyl-2-(3,4,5-trimethoxyphenylamino)pyrimidin-4-ylamino)benzamide] reads more than 6.70.
